How the values were obtained:
[1] = biological target: T1, TYRO3 (Homo sapiens, UniProt Q06418); assay: LanthaScreen Eu kinase binding assay, TYRO3; conditions: Tracer 236
T1 construct: purchased Life Technologies
T1 sequence (Q06418 41-890): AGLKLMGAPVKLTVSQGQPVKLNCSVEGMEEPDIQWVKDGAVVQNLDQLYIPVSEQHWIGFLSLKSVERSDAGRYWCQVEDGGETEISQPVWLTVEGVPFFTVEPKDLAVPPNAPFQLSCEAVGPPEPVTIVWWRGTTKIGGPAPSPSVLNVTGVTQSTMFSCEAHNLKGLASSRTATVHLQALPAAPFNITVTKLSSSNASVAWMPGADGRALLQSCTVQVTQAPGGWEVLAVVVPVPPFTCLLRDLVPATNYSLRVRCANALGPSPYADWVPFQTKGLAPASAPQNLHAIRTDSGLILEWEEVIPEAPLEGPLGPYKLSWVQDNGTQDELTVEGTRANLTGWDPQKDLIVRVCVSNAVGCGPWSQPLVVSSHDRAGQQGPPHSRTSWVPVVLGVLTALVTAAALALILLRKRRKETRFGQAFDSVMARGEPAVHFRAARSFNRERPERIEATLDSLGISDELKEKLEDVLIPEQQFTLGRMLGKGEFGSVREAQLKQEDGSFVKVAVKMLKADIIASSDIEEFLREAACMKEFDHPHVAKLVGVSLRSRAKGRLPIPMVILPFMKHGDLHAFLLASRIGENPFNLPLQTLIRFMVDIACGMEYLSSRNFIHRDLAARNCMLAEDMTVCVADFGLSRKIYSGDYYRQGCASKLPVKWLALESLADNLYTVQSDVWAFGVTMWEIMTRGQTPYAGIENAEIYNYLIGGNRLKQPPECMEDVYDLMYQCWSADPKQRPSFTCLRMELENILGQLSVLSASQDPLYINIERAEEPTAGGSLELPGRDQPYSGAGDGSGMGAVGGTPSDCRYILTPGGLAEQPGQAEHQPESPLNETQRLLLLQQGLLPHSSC

[2] = biological target: T2, Axl (Homo sapiens, UniProt P30530); assay: LanthaScreen Eu kinase binding assay, Axl; conditions: Tracer 236
T2 construct: purchased Life Technologies
T2 sequence (P30530 26-894): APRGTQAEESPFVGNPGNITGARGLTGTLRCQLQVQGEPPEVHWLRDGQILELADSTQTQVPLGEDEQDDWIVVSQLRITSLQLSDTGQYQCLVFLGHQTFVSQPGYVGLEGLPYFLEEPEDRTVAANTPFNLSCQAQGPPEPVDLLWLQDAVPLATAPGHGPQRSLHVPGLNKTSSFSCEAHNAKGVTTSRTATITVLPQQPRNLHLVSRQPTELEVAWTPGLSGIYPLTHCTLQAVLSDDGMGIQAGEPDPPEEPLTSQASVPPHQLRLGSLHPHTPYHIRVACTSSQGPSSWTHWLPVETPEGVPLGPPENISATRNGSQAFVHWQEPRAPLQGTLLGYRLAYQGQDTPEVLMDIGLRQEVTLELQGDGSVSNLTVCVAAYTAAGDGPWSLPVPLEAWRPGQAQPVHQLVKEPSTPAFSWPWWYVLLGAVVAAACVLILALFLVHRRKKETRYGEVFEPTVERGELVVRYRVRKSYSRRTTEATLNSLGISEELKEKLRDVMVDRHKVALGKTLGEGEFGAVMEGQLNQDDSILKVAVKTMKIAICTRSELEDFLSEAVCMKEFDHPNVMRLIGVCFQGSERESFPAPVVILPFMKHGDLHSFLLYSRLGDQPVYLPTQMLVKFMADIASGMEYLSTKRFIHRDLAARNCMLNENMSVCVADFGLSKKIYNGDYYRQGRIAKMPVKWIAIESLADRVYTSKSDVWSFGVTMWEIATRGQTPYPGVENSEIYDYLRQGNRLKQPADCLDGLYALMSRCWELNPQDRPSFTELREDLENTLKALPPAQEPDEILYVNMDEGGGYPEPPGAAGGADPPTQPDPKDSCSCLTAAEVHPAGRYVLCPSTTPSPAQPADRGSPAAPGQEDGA

Structure (SMILES): COc1cc2nccc(Oc3ccc(NC(=O)c4nn(-c5ccc(F)cc5C(C)=O)cc4OCC4CC4)nc3)c2cc1OC [Compound 273]
- Kd [1]: 0.1 to 1 µM
- Kd [2]: < 0.1 µM

Structure (SMILES): CCOc1cn(-c2cnccc2CCCN(C)C)nc1C(=O)Nc1ccc(Oc2ccnc3cc(OC)c(OC)cc23)cn1 [Compound 61]
- Kd [1]: < 0.1 µM
- Kd [2]: < 0.1 µM

Structure (SMILES): CCOc1cn(-c2ccn(C)c2)nc1C(=O)Nc1ccc(Oc2ccnc3cc(OC)c(OC)cc23)cn1 [Compound 56]
- Kd [1]: < 0.1 µM
- Kd [2]: < 0.1 µM

Structure (SMILES): CCOc1cn(CC)nc1C(=O)Nc1ccc(Oc2ccnc3cc(OC)c(OC)cc23)cn1 [Compound 27]
- Kd [1]: < 0.1 µM
- Kd [2]: < 0.1 µM

Structure (SMILES): COc1cc2c(Oc3ccc(NC(=O)c4nn(-c5cnc(N)nc5)cc4OCC(F)(F)F)c(F)c3)ccnc2cc1OC(C)C [Compound 243]
- Kd [1]: < 0.1 µM
- Kd [2]: < 0.1 µM

Structure (SMILES): CCOc1cn(-c2cnccc2CN(C)C)nc1C(=O)Nc1ccc(Oc2ccnc3cc(OC)c(OC)cc23)cn1 [Compound 73]
- Kd [1]: 0.1 to 1 µM
- Kd [2]: < 0.1 µM

Structure (SMILES): CCOc1cn(-c2cnsc2)nc1C(=O)Nc1ccc(Oc2ccnc3cc(OC)c(OC)cc23)cn1 [Compound 39]
- Kd [1]: < 0.1 µM
- Kd [2]: < 0.1 µM

Structure (SMILES): COc1cc2nccc(Oc3ccc(NC(=O)c4nn(-c5cnc(Cl)cn5)cc4OCC(F)(F)F)nc3)c2cc1OC [Compound 236]
- Kd [1]: < 0.1 µM
- Kd [2]: < 0.1 µM

Structure (SMILES): CCOc1cn(-c2cnccc2CO)nc1C(=O)Nc1ccc(Oc2ccnc3cc(OC(C)C)c(OC)cc23)cc1F [Compound 231]
- Kd [1]: < 0.1 µM
- Kd [2]: < 0.1 µM

Structure (SMILES): CCOc1cnn(C2CCCN(C)C2)c1C(=O)Nc1ccc(Oc2ccnc3cc(OC)c(OC)cc23)cc1F (stereo not drawn) [Compound 213]
- Kd [1]: ≥ 1 µM
- Kd [2]: ≥ 1 µM

Structure (SMILES): COc1cc2nccc(Oc3ccc(NC(=O)c4nn(-c5ccc(F)c(C(C)=O)c5)cc4OCC4CC4)nc3)c2cc1OC [Compound 274]
- Kd [1]: < 0.1 µM
- Kd [2]: < 0.1 µM

Structure (SMILES): COc1cc2nccc(Oc3ccc(NC(=O)c4nn(-c5cnc(N)cn5)cc4OCC4CC4)nc3)c2cc1OC [Compound 249]
- Kd [1]: < 0.1 µM
- Kd [2]: < 0.1 µM

Structure (SMILES): COc1cc2nccc(Oc3ccc(NC(=O)c4nn(-c5cnc(N)nc5)cc4OCC(F)(F)F)nc3)c2cc1OC [Compound 237]
- Kd [1]: < 0.1 µM
- Kd [2]: < 0.1 µM

Structure (SMILES): CCOc1cn(-c2cnc(N)nc2)nc1C(=O)Nc1ccc(Oc2ccnc3cc(OC)c(OC(F)(F)F)cc23)cc1F [Compound 242]
- Kd [1]: ≥ 1 µM
- Kd [2]: ≥ 1 µM

Structure (SMILES): COc1cc2nccc(Oc3ccc(NC(=O)c4nn(-c5ccc(F)cc5C5CCCC5)cc4OCC4CC4)nc3)c2cc1OC [Compound 270]
- Kd [1]: 0.1 to 1 µM
- Kd [2]: 0.1 to 1 µM

Structure (SMILES): CCOc1cn(-c2ccc(OC)cc2)nc1C(=O)Nc1ccc(Oc2ccnc3cc(OC)c(OC)cc23)cn1 [Compound 1]
- Kd [1]: 0.1 to 1 µM
- Kd [2]: < 0.1 µM

Structure (SMILES): CCOc1cn(-c2ccc(N(C)C)cc2Cl)nc1C(=O)Nc1ccc(Oc2ccnc3cc(OC)c(OC)cc23)cn1 [Compound 31]
- Kd [1]: ≥ 1 µM
- Kd [2]: < 0.1 µM

Structure (SMILES): COc1cc2nccc(Oc3ccc(NC(=O)c4nn(-c5ccc(F)cc5C)cc4OCC4CC4)nc3)c2cc1OC [Compound 258]
- Kd [1]: < 0.1 µM
- Kd [2]: < 0.1 µM

Structure (SMILES): CCOc1cn(-c2cnccc2C(C)(O)CO)nc1C(=O)Nc1ccc(Oc2ccnc3cc(OC)c(OC)cc23)cc1F (stereo not drawn) [Compound 227]
- Kd [1]: < 0.1 µM
- Kd [2]: < 0.1 µM

Structure (SMILES): COc1cc2nccc(Oc3ccc(NC(=O)c4nn(-c5cnc(N)nc5)cc4OCC4CCC4)nc3)c2cc1OC [Compound 262]
- Kd [1]: < 0.1 µM
- Kd [2]: < 0.1 µM

Structure (SMILES): COc1cc2nccc(Oc3ccc(NC(=O)c4nn(-c5cnc(N)cn5)cc4OCC(F)(F)F)c(F)c3)c2cc1OC [Compound 252]
- Kd [1]: < 0.1 µM
- Kd [2]: < 0.1 µM

Structure (SMILES): COc1cc2nccc(Oc3ccc(NC(=O)c4nn(-c5ccc(OC(F)(F)F)cc5Cl)cc4OCC4CC4)nc3)c2cc1OC [Compound 244]
- Kd [1]: < 0.1 µM
- Kd [2]: < 0.1 µM

Structure (SMILES): CCOc1cn(-c2cnccc2CO)nc1C(=O)Nc1ccc(Oc2ccnc3cc(OC)c(OC(F)(F)F)cc23)cn1 [Compound 233]
- Kd [1]: < 0.1 µM
- Kd [2]: < 0.1 µM

Structure (SMILES): CCOc1cnn(-c2ccsc2)c1C(=O)Nc1ccc(Oc2ccnc3cc(OC)c(OC)cc23)cn1 [Compound 21]
- Kd [1]: 0.1 to 1 µM
- Kd [2]: < 0.1 µM
